Results published in patent US9302998B2, “Aryl triazole compounds with antitumoural activity” (SIGMA-TAU RESEARCH SWITZERLAND S.A., priority 2010, dated 2016).

Key:
HeLa cervix uteri = experiment: Sulphorodamine B test at single concentration, HeLa; format: cell-based; conditions: Homo sapiens, 500 nM, 72 h
Protocol: (§1) The antiproliferative activity of novel Hsp90 inhibitors was also evaluated on various cancerous cell lines by means of the sulphorodamine B test (i.e., NCI-H460 non-small cell lung carcinoma, A431 epidermoid, A2780 ovarian, MDA-MB436 triple-negative breast, U87MG glioblastoma, A498 renal, HCT116 colon, MeWo melanoma, MiaPaCa2 pancreas, HeLa cervix uteri, NB4 promyelocytic leukemia). NCI-H460, A431, MDA-MB436, A2780, A498, HeLa, NB4 tumour cells were grown in RPMI 1640 containing 10% fetal bovine serum (i.e., FBS from GIBCO), L-glutamine, and 50 μg/ml gentamycin sulfate.
(§2) All cell lines were maintained in a 37° C. incubator with saturated humidity and an atmosphere containing 95% air and 5% CO2, and were sub-cultured every 2-3 days. Tumour cells were seeded in 96-well tissue culture plates at approximately 10% confluence and were allowed to attach and recover for 24 h.
(§3) Varying concentrations of the drugs were then added to each well to calculate their IC50 value (the concentration which inhibits the 50% of cell survival). The plates were incubated at 37° C. for 72 h. At the end of the treatment, the plates were washed by remotion of the supernatant and addition of PBS 3 times. 200 μl PBS and 50 μl of cold 80% trichloroacetic acid (TCA) were added. The plates were incubated on ice for at least 1 h. TCA was removed, the plates were washed 3 times by immersion in distilled-water and dried on paper and at 40° C. for […]. Then 200 μl of 0.4% sulphorodamine B in 1% acetic acid were added. The plates were incubated at room temperature for 30 min. Sulphorodamine B was removed, the plates were washed by immersion in 1% acetic acid for 3 times, then they were dried on paper and at 40° C. for 5 min. Then, 200 μl Tris 10 mM were added, the plates were kept under stirring for 20 min. The cell survival was determined as optical density by a Multiskan […] at 540 nm. The amount of cells killed was calculated as the percentage decrease in sulphorodamine B binding compared with control cultures.
(§4) The other cell lines were screened against one single concentration of the various inhibitors (i.e., 500 nM), all experiments being made in octuplicate, following the protocol described at example 35. Since NB4 cell line was grown in suspension, a further step of centrifugation (i.e., 1600 g for 10 min) was added after the 72 hour incubation period.

MiaPaCa2 pancreas = experiment: Sulphorodamine B test at single concentration, MiaPaCa2; format: cell-based; conditions: Homo sapiens, MIA PaCa-2; 500 nM, 72 h
Protocol: as §1
MiaPaCa2 cells were cultured in DMEM medium containing 10% FBS, L-glutamine, and 50 μg/ml gentamycin sulfate.
as §2, §3, §4

[1] = test system: NB4 promyelocytic leukemia; experiment: Sulphorodamine B test at single concentration, NB4; format: cell-based; conditions: 500 nM, 72 h, suspension cells
Protocol: as §1, §2, §3, §4

U87MG glioblastoma = experiment: Sulphorodamine B test at single concentration, U87MG; format: cell-based; conditions: Homo sapiens, U-87 MG; 500 nM, 72 h
Protocol: as §1
(§5) MeWo and U87-MG cells were cultured in Eagle's Minimum Essential Medium (i.e., EMEM) containing 10% FBS, L-glutamine, 1 mM sodium pyruvate, 0.1 mM non-essential amino acids, 1.5 g/l sodium bicarbonate, and 50 μg/ml gentamycin sulphate.
as §2, §3, §4

Hsp90 = target: T1, Hsp90 (Homo sapiens, UniProt P07900); experiment: Fluorescence Polarization (FP) binding, GM-BODIPY displacement from Hsp90; conditions: GM-BODIPY tracer, 4° C. for 4 hours
T1 construct: purchased Stressgen SPP-776
Protocol: GM-BODIPY (PerkinElmer, CUSN60342000MG) was previously dissolved in DMSO to obtain 10 mM stock solutions and kept at −20° C. until use.
Hsp90 (Stressgen, SPP-776), was previously dissolved in assay buffer (HFB) to form 2.2 μM stock solutions and kept at −80° C. until use.
The compounds were previously dissolved in DMSO to obtain stock solutions and kept at −20° C. The day of experiment, the compounds were prepared by serial dilutions in assay buffer (HFB) containing 20 mM HEPES (K) pH 7.3, 50 mM KCl, 5 mM MgCl2, 20 mM Na2MoO4 and 0.01% NP40. Before each use, 0.1 mg/ml Bovine Gamma globulin and 2 mM DTT were freshly added.
Fluorescence Polarization (FP) was performed in Opti-Plate™-96F well plates (Perkin Elmer, Zaventem, Belgium) using a plate reader (Wallac Envision 2101 multilabel reader, Perkin Elmer, Zaventem, Belgium). To evaluate the binding affinity of the molecules, 50 μl of the GM-BODIPY solution (100 nM) were added to 125 nM of Hsp90 in the presence of 5 μl of the test compounds at increasing concentrations. The plate was mixed on a shaker at 4° C. for 4 hours, and the FP values in mP (millipolarization units) were recorded. The IC50 values were calculated as the inhibitor concentration where 50% of the tracer is displaced; each data point is the result of the average of triplicate wells, and was determined from a plot using nonlinear least-squares analysis. Curve fitting was performed using
Prism GraphPad software program (GraphPad software, Inc., San Diego, Calif.).

[2] = test system: NCI-H460 non-small cell lung carcinoma; experiment: Cytotoxicity assay, sulphorodamine B test, NCI-H460; format: cell-based; conditions: Homo sapiens, NCI-H460; 72 h, sulphorodamine B
Protocol: as §1, §2, §3

MeWo melanoma = experiment: Sulphorodamine B test at single concentration, MeWo; format: cell-based; conditions: Homo sapiens, 500 nM, 72 h
Protocol: as §1, §5, §2, §3, §4

A431 epidermoid = experiment: Sulphorodamine B test at single concentration, A431; format: cell-based; conditions: Homo sapiens, A-431; 500 nM, 72 h
Protocol: as §1, §2, §3, §4

[3] = test system: MDA-MB436 triple-negative breast; experiment: Sulphorodamine B test at single concentration, MDA-MB436; format: cell-based; conditions: Homo sapiens, MDA-MB-436; 500 nM, 72 h
Protocol: as §1, §2, §3, §4

A2780 ovarian = experiment: Sulphorodamine B test at single concentration, A2780; format: cell-based; conditions: Homo sapiens, 500 nM, 72 h
Protocol: as §1, §2, §3, §4

A498 renal = experiment: Sulphorodamine B test at single concentration, A498; format: cell-based; conditions: Homo sapiens, 500 nM, 72 h
Protocol: as §1, §2, §3, §4

HCT116 colon = experiment: Sulphorodamine B test at single concentration, HCT116; format: cell-based; conditions: Homo sapiens, HCT-116; 500 nM, 72 h
Protocol: as §1
HCT116 cells were cultured in McCoy's medium containing 10% FBS, L-glutamine, and 50 μg/ml gentamycin sulfate.
as §2, §3, §4

Structure (SMILES)	inhibition at 0.5 µM (HeLa cervix uteri) [%]	inhibition at 0.5 µM (MiaPaCa2 pancreas) [%]	inhibition at 0.5 µM [1] [%]	inhibition at 0.5 µM (U87MG glioblastoma) [%]	IC50 (Hsp90) [nM]	IC50 [2] [nM]	inhibition at 0.5 µM (MeWo melanoma) [%]	inhibition at 0.5 µM (A431 epidermoid) [%]	inhibition at 0.5 µM [3] [%]	inhibition at 0.5 µM (A2780 ovarian) [%]	inhibition at 0.5 µM (A498 renal) [%]	inhibition at 0.5 µM (HCT116 colon) [%]
CCNC(=O)c1nnn(-c2cc(C(C)C)c(O)cc2O)c1-c1ccc(CN2CCCC(O)C2)cc1 (racemic) [Example 6, (R,S)-1-(2,4-dihydroxy-5-isopropyl-phenyl)-5-[4-(3-hydroxy-piperidin-1-ylmethyl)-phenyl]-1H-[1,2,3]triazole-4-carboxylic acid ethylamide]	≥ 50	≥ 50	≥ 50	≥ 50	< 50	50 to 100	≥ 50	≥ 50	≥ 50	≥ 50	≥ 50	≥ 50
CC(C)c1cc(-n2nncc2-c2ccc(CN3CCCC(O)C3)cc2)c(O)cc1O (stereo not shown) [Example 2, 4-{5-[4-(3-hydroxy-piperidin-1-ylmethyl)-phenyl]-[1,2,3]triazol-1-yl}-6-isopropyl-benzene-1,3-diol]	≥ 50	≥ 50	≥ 50	30 to 50	< 50	< 50	≥ 50	≥ 50	≥ 50	≥ 50	30 to 50	≥ 50
CC(C)c1cc(-n2nncc2-c2ccc(CN3CCN(Cc4ccccc4)CC3)cc2)c(O)cc1O [Example 3, 4-{5-[4-(4-benzyl-piperazin-1-ylmethyl)-phenyl]-[1,2,3]triazol-1-yl}-6-isopropyl-benzene-1,3-diol]	≥ 50	≥ 50	≥ 50		< 50	100 to 500	≥ 50	≥ 50	≥ 50	≥ 50	30 to 50	≥ 50
CCNC(=O)c1nnn(-c2cc(C(C)C)c(O)cc2O)c1-c1ccc(CN2CCOCC2)cc1 [Example 5, 1-(2,4-dihydroxy-5-isopropyl-phenyl)-5-(4-morpholin-4-ylmethyl-phenyl)-1H-[1,2,3]triazole-4-carboxylic ethyl amide]	≥ 50	≥ 50	≥ 50	≥ 50	< 50	< 50	≥ 50	≥ 50	≥ 50	≥ 50	≥ 50	≥ 50
CCNC(=O)c1nnn(-c2cc(C(C)C)c(O)cc2O)c1-c1ccc(CN2CCNCC2)cc1 [Example 12, 1-(2,4-dihydroxy-5-isopropyl-phenyl)-5-(4-piperazin-1-ylmethyl-phenyl)-1H-[1,2,3]triazole-4-carboxylic acid ethylamide]		≥ 50			< 50	100 to 500			≥ 50	≥ 50	30 to 50	
CCNC(=O)c1nnn(-c2cc(C(C)C)c(O)cc2O)c1-c1ccc(CN2CCC(N(C)C)CC2)cc1 [Example 13, 1-(2,4-dihydroxy-5-isopropyl-phenyl)-5-[4-(4-dimethylamino-piperidin-1-ylmethyl)-phenyl]-1H-[1,2,3]triazole-4-carboxylic acid ethylamide]	30 to 50	≥ 50		≥ 50	< 50	100 to 500	≥ 50	≥ 50	≥ 50	≥ 50	30 to 50	≥ 50
CCNC(=O)c1nnn(-c2cc(C(C)C)c(O)cc2O)c1-c1ccc(CNCCN2CCOCC2)cc1 [Example 14, 1-(2,4-dihydroxy-5-isopropyl-phenyl)-5-{4-[(2-morpholin-4-yl-ethylamino)-methyl]-phenyl}-1H-[1,2,3]triazole-4-carboxylic acid ethylamide]		≥ 50		≥ 50	< 50	100 to 500	≥ 50	≥ 50	≥ 50	≥ 50		30 to 50
CCNC(=O)c1nnn(-c2cc(C(C)C)c(O)cc2O)c1-c1ccc(CN2CCCC2)cc1 [Example 21, 1-(2,4-dihydroxy-5-isopropyl-phenyl)-5-(4-pyrrolidin-1-ylmethyl-phenyl)-1H-[1,2,3]triazole-4-carboxylic acid ethylamide]	≥ 50	≥ 50	≥ 50	≥ 50	< 50		≥ 50	≥ 50	≥ 50	≥ 50	≥ 50	≥ 50
CCNC(=O)c1nnn(-c2cc(C(C)C)c(O)cc2O)c1-c1ccc(Cn2ccnc2)cc1 [Example 22, 1-(2,4-dihydroxy-5-isopropyl-phenyl)-5-(4-imidazol-1-ylmethyl-phenyl)-1H-[1,2,3]triazole-4-carboxylic acid ethylamide]	≥ 50	≥ 50	≥ 50	≥ 50	< 50		≥ 50	≥ 50	≥ 50	≥ 50	≥ 50	≥ 50
CCNC(=O)c1nnn(-c2cc(C(C)C)c(O)cc2O)c1NCc1ccc(N2CCOCC2)cc1 [Example 26, 1-(2,4-dihydroxy-5-isopropyl-phenyl)-5-(4-morpholin-4-yl-benzylamino)-1H-[1,2,3]triazole-4-carboxylic acid ethylamide]		≥ 50	30 to 50		< 50	100 to 500	30 to 50			≥ 50	≥ 50	≥ 50
